This note sets out measurements from patent US7390625B2, “Apoptosis-associated protein and use thereof” (Takeda Pharmaceutical Company Limited, priority 2002, dated 2008).

The subject of this assay is PAE-ABP1 cells. The experiment in a line: Cell death assay in PAE-ABP1 cells after removal of tetracycline. The format is cell-based, porcine. The note with it: 50 μM, 18 hours after tetracycline removal. On the procedure:
FIGS. 7A-B show the induction of cell death by ABP1 in PAE-ABP1 cells. FIG. 7A: Phase contrast photomicrographs at 36 hours after cultivation of PAE-ABP1 cells in the presence (+) and absence (−) of tetracycline (Tet) are shown. FIG. 7B: The ratio (%) of cell death from cultivation in the presence of tetracycline (O hour) and at 24 hours and 48 hours after removal of tetracycline.
FIGS. 9A-B show the caspase dependency of cell death by ABP1. FIG. 9A: PAE-ABP1 cells were cultivated in the absence of tetracycline, and caspase-3 activity was measured after 0, 12, 24, and 36 hours. The results are shown as relative values with the value in the presence of tetracycline taken as 1. FIG. 9B: PAE-ABP1 cells were treated with zVAD-fmk (50 μM) simultaneously with removal of tetracycline, and the ratio (%) of dead cells was quantified. Cell death assay was conducted at 18 hours after removal of tetracycline. […]
When these cells were cultured in the absence of tetracycline, cell death was induced with the expression of the ABP1 protein, as in the transient expression of the ABP1 protein in HeLa cells (FIG. 7A). The ratio of dead cells to all cells (the ratio of cells showing a morphological sign of cell death to all cells was determined under a microscope; the results were shown as the mean for three visual fields) was determined to be about 55% at 48 hours after removal of tetracycline (FIG. 7B).

Peptide text beside a SMILES is read from it. * marks the point of attachment. Cbz = O=C(OCc1ccccc1)*; CH2F = FC*

On to `COC(=O)C[C@H](NC(=O)[C@H](C)NC(=O)[C@@H](NC(=O)OCc1ccccc1)C(C)C)C(=O)CF` [zVAD-fmk, reference compound] (Cbz-Val-Ala-Asp(OMe)-CH2F), for which the “suppression of cell death caused by ABP1” value is reported as “almost completely suppressed”.
